Laboratory results as given in US9408891B2, “Methods of using gelsolin to treat or prevent bacterial sepsis” (priority 2003, dated 2016).
Entries after “also recorded” stand apart in the source; their conditions may differ.

Experiments:
[1] = target: T1, gelsolin (Homo sapiens, UniProt P06396); settings: Goetzl et al. 2000; cited from earlier work
[2] = system: actin-binding proteins; settings: Yamamura et al., FEBS Lett. 1996; cited from earlier work
[3] = target: T1, gelsolin; assay: Actin severing activity of gelsolin (50 nM) with LTA or lysolipids; assay type: biochemical
Protocol: The tested gelsolin concentration was 50 nM; LTA ranged from 0-50 μM; Pyrene-F-actin was 0.3 μM. Recording changes in fluorescently-labeled (rhodamine B-labeled) gelsolin peptide PBP10 (10 μM), indicates a specific interaction between gelsolin and LTA.

[4] = target: T2, pyrene-labeled SEQ ID No:1 (gelsolin residues 160-169) (Homo sapiens, UniProt P06396); assay: Pyrene excimer fluorescence of pyrene-labeled SEQ ID No:1 after adding lipids; assay type: binding; settings: 2 μM pyrene peptide
T2 construct: made in house; host or cells: solid phase peptide synthesis
Protocol: (§1) Therefore, to determine changes of gelsolin OD at 280 nm, different amounts of LPS, LPA and PS were added to recombinant human gelsolin (rhGLS) solutions and OD emission spectra were recorded using spectrophotometer Genesys 6 (Thermo-Spectronic, USA).
Interaction of LPS and gelsolin was examined using rhodamine B- and pyrene-labeled SEQ ID No:1 (QRLFQVKGRR). The effect of LPS on gelsolin was determined in terms of the rhodamine-B fluorescent changes of PBP10 peptide in the presence of different lipids (FIG. 1C); and the fluorescence emission spectra of pyrene-labeled SEQ ID No:1 (2 μM) in the presence of LPS from Escherichia coli (1.2 μM), PIP2 (0.82 μM) and LPA (0.82 μM) (FIG. 1D) The results using the pyrene-derivatized gelsolin peptide confirmed the LPS induced clustering of the peptide with resulting excimer fluorescence of the pyrene group, which was evident as a large increase in fluorescence emission at 480 nm.

[5] = target: T3, recombinant human gelsolin (rhGLS) (Homo sapiens, UniProt P06396); assay: Actin filament severing activity of purified gelsolin (pyrene F-actin depolymerization); assay type: biochemical; settings: molar basis comparison
T3 construct: purchased Biogen IDEC, Inc., Cambridge, Mass; host or cells: E. coli
T3 sequence (P06396 28-782): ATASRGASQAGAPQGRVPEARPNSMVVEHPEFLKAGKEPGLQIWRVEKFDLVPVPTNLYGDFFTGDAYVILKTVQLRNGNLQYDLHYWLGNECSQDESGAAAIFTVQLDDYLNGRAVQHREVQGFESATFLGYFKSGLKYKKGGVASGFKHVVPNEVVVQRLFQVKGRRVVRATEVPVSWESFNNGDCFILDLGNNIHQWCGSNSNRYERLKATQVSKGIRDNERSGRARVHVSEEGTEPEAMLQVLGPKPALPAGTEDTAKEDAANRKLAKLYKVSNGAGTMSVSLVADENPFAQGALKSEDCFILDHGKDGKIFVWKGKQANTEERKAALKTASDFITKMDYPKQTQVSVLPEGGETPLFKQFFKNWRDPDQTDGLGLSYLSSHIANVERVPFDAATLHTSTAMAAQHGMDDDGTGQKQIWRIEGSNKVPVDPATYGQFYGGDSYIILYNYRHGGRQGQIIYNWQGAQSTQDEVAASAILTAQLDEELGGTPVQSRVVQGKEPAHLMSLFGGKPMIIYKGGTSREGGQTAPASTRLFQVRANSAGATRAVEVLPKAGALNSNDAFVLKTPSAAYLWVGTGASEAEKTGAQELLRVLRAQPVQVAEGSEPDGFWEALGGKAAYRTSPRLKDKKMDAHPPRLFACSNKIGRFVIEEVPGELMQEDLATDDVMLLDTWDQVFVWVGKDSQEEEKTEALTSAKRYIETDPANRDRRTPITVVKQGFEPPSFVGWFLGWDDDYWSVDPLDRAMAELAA
Protocol: To determine gelsolin's severing activity, rates of fluorescence decrease were evaluated during depolymerization. Monomeric G-actin was prepared from an acetone powder of rabbit skeletal muscle according to previously published methods (Spudich et al., J. Biol. Chem […]). The non-polymerizing solution contained 2 mM TRIS, 0.2 mM CaCl2, 0.5 mM ATP (adenosine triphosphate), 0.2 mM DTT (dithiothreitol) pH 7.4. Actin was polymerized by adding 150 mM KCl and 2 mM MgCl2 to the G-actin solutions and incubating for 1 hour at room temperature.
For F-actin severing assays, in general, a small volume (typically 5 μl) of the gelsolin composition is added to a similar volume of pyrene-labeled F-actin at a concentration adjusted to provide an actin:gelsolin ratio of approximately 10:1 (typically 1 μM gelsolin and 10 μM actin). This mixture is the diluted to 0.5 μM in a larger volume of F-actin buffer, and the filament severing efficiency is calculated from the initial slope of the fluorescence change. This reflects the rate of depolymerization that, in turn, is proportional to the number of cuts made by gelsolin. The LPS/gelsolin reaction can be done under any ionic condition, and the addition to F-actin requires the presence of […] Ca^2+ to activate the gelsolin. […] The actin nucleation reaction is similar except that in the latter case, the gelsolin/LPS mixture is added to a more dilute solution of G-actin (typically, 1 or 2 μM) in low ionic strength buffer followed immediately by addition of 150 mM KCI and 2 mM MgCl2 to initiate polymerization.
As shown, recombinant human gelsolin (rhGLS) (FIG. 4A) and blood serum (FIG. 4B) severing activity was measured in 0.4 μM pyrene-labeled F-actin samples (polymerized with 50% pyrene-labeled G-actin), after adding gelsolin (16 nM)/serum (2.5 μl), or their combination with one of the following: LPS (from different species), PIP2 (phosphatidyl-inositol-4,5-bisphosphate), LPA (lysophosphatidic acid), lipid A (the LPS derivative lacking polysaccharide) or PS (phosphatidylserine). The fluorescence intensity of F-pyrene actin was then monitored for 10 minutes, and the severing activity was calculated based on decreasing fluorescence. Severing activity was determined from a decrease in rate of fluorescence during depolymerization, and the depolymerization rate was calculated from the slope of the early decrease in fluorescence.

[6] = target: T3, recombinant human gelsolin (rhGLS); assay: Change of gelsolin OD at 280 nm after adding lipids; assay type: binding; settings: OD 280 nm
Protocol: as §1

[7] = system: human aortic endothelial cells (HAEC); assay: LPS-induced actin cytoskeleton disassembly, phalloidin staining, endothelial cells; assay type: cell-based; settings: 2 μM (10 μg/ml) LPS preincubated with 1.8 μM (0.16 mg/ml) gelsolin, 10 min, listed as plasma gelsolin
Excerpt: (§2) In light of the findings in the previous Examples, and using the materials prepared in above, the effect of the gelsolin binding by LPS was studied to determine the effect on cellular responses in vitro. Cell cultures of human aortic endothelial cells (HAEC) and rat primary astrocytes were used to evaluate the effect of LPS on actin. Both of these cell types have mCD14 (membrane bound C14) and TLR LPS receptors (Faure, et al., J. Biol. Chem. 275:11058-11063 (2000); Bsibsi, et al., J. Neuropathol. Exp. Neurol. 61:1013-1021 (2002); Bowman, et al., Glia 43:281-291 (2003)).
HAECs (primary human aortic endothelial cells) (ATCC, Rockville, Md. or Clonetics, San Diego, Calif.), will grow to confluence through passages 5-9 in endothelial cell growth medium supplemented with 2% fetal bovine serum, 10 μg/liter human recombinant epidermal growth factor, 1 mg/liter hydrocortisone, 50 μg/ml gentamicin, 50 ng/ml amphotericin-B, in a 37° C. humidified atmosphere of 95% air:5% C02.
(§3) HAECs and astrocytes cultures were incubated for 10 minutes in medium containing 10 μg/ml LPS alone, or LPS that had been pre-incubated with 0.16 mg/ml of human gelsolin. […] Location of transcription factor nuclear factor-kappaB (NF-κB) was observed using a monoclonal antibody to NF-κB (Molecular Probes), and cell nuclei were detected by counter-staining with 4′, 6-diamidino-2-phenylindole dihydrochloride (DAPI) (Sigma).

[8] = system: NF-κB translocation in rat primary astrocytes; assay: NF-κB translocation to the nucleus in astrocytes; assay type: cell-based; settings: LPS preincubated with 1.8 μM gelsolin, 2 hour incubation
Protocol: Rat primary astrocytes were obtained from prenatal rats and maintained for 14 days in culture before use. Embryos (E17-E19) were removed by caesarian section from a Sprague-Dawley rat and the hippocampi were surgically removed. The tissue was digested in trypsin/DNAse at 37° C., centrifuged (1000×5 min) and filtered to derive suspensions from each pup. Cells were grown in an incubator at 37° C. and 5% CO2 in DMEM (Dulbecco's Modified Eagle's Medium; BioWhittaker/Cambrex BioScience, East Rutherford, N.J.), supplemented with Ham's F12 (Sigma-Aldrich, St. Louis, Mo.) and 5% fetal bovine serum (FBS) (Hyclone, Logan, Utah) for 7 days, followed by an additional 7 days in Neurobasal medium (Gibco, Grand Island, N.Y.) also supplemented with 5% FBS, 2 mM l-glutamine, 50 μg/ml streptomycin and 50 U/ml penicillin. In each experiment, the medium was changed to serum-free at 6-12 hours prior to addition of LPS, TNF-α, or gelsolin.
HAECs and astrocytes cultures were incubated for 10 minutes in medium containing 10 μg/ml LPS alone, or LPS that had been pre-incubated with 0.16 mg/ml of human gelsolin. Cultures were fixed with ice-cold methanol and immunostained for F-actin with fluorescein isothiocyanate (FITC)-labeled phalloidin (Molecular Probes, Eugene, Oreg.). In astrocyte cultures, NF-κB translocation was manipulated by a 2 hour incubation in serum-free medium containing one of the following: 10 ng/ml TNF-α, 10 μg/ml LPS alone, or LPS that had been preincubated with 0.16 mg/ml human gelsolin. Location of transcription factor nuclear factor-kappaB (NF-κB) was observed using a monoclonal antibody to NF-κB (Molecular Probes), and cell nuclei were detected by counter-staining with 4′, 6-diamidino-2-phenylindole dihydrochloride (DAPI) (Sigma).

[9] = system: binding of LPS-binding protein (LBP) to LPS; assay: Competition of gelsolin with 125I-LBP for LPS-coated wells (solid phase); settings: nanomolar concentrations of gelsolin
Protocol: (§4) To determine competition between gelsolin and LPS-binding proteins (LPB), a high affinity carrier for LPS, the LPS-coated wells (1 nmole/per well of LPS Re-595 from Salmonella minnesota) were saturated by incubation (2 hours, 20° C.) with gelsolin 2 mg/ml in RPMI), washed and preincubated with different amount of recombinant human gelsolin (0-2 ng/well) in […] (0.5 mg/ml) containing RPMI. RPMI medium refers to Roswell Park Memorial Institute medium, typically used to culture human lymphoid cells. Then, 10 μl of ^125I-LPB (6×10^4 cpm) were added, and the plates were incubated for 90 minutes at 37° C., then washed six times with RPMI. After that, the bound radioactivity was measured.

[10] = system: LPS-binding protein (LBP); assay: Binding of 125I-LBP to gelsolin-coated wells
Protocol: as §4, with “[…]),” for “the LPS-coated wells (1 nmole/per well of LPS Re-595 from Salmonella minnesota) were saturated by incubation (2 hours, 20° C.) with gelsolin 2 mg/ml in RPMI),”

[11] = system: rat primary astrocytes; assay: LPS-induced actin cytoskeleton disassembly, phalloidin staining, astrocytes; assay type: cell-based; settings: 2 μM (10 μg/ml) LPS preincubated with 1.8 μM (0.16 mg/ml) gelsolin, 10 min, listed as plasma gelsolin
Excerpt: as §2
Rat primary astrocytes were obtained from prenatal rats and maintained for 14 days in culture before use. Embryos (E17-E19) were removed by caesarian section from a Sprague-Dawley rat and the hippocampi were surgically removed. The tissue was digested in trypsin/DNAse at 37° C., centrifuged (1000×5 min) and filtered to derive suspensions from each pup. […]
as §3

[12] = system: endotoxemic C57BL/6 mice (25 mg/kg LPS E. coli 055:B5 i.p.); assay: Mortality study of mice challenged with lethal E. coli LPS and treated with GSN, BSA or saline; assay type: in vivo, mouse
Protocol: To study the effect on mortality, animals are injected i.p. with 25 mg/kg LPS (E. coli 055:B5, Sigma) and each mouse is randomly selected to receive one of the following three treatments: 1) GSN (containing: 8 mg of recombinant human plasma gelsolin (Biogen-IDEC, Inc) containing 1 mM Ca dissolved in 400 μl of 0.15 M NaCl (saline); or 2) BSA (containing: 8 mg of bovine albumin (Serologicals Proteins, Inc, Kankakee, Ill.) containing 1 mM Ca dissolved in 400 μl of saline, or 3) saline (containing only 400 μl saline). The GSN (gelsolin), BSA or saline solutions are administered subcutaneously at the dorsal surface of each animal immediately after LPS instillation, and then repeated at 24, 48, and 72 hours.
There are 9 mice in the saline group and 8 mice each in the GSN group and the BSA group. Animals are monitored frequently, and mortality is recorded and presented at an interval of days. Animal mortality study data are presented as Kaplan-Meier curves and log-rank test is used to analyze treatment impact on animal mortality. Ap-value less than 0.05 is considered significant.
To measure gelsolin in vivo, a nucleation assay for plasma gelsolin is performed as follows: the collected mouse plasma is diluted 1:5 in Buffer B (0.1 M KCI, 0.2 mM MgCl2, 1 mM EGTA (ethyleneglycol-bis(2-aminoethyl) N,N,N′,N′,-tetraacetic acid), 0.5 mM ATP, 0.5 mM β-mercaptoethanol, 10 mM Tris-HCl buffer, pH 7.4). From the diluted plasma sample, 5 μl is added to 280 μl Buffer B supplemented with 1.5 mm […] and 0.4 μM phallacidin in 6×50 mm borosilicate culture tubes. The actin polymerization reaction is initiated by adding 15 μl 20 μM pyrene-actin in Buffer A (0.5 mM ATP, 0.5 mM β-mercaptoethanol, 0.2 mM CaCl2 […] buffer, pH 7.4). Polymerization is monitored for 200 seconds in a spectrofluorimeter at excitation and emission wavelengths of 366 and 386 nm respectively. Gelsolin concentrations are estimated from a standard curve using recombinant human plasma gelsolin.

[13] = system: human neutrophils / human aortic endothelial cells (HAEC); assay: Neutrophil adhesion to LTA-stimulated HAEC; assay type: cell-based; settings: gelsolin 2 μM added along with LTA 10 μg/ml
Excerpt: To investigate whether gelsolin can prevent gram-positive bacterial inflammation, the effect of LTA-mediated activation of human neutrophils was examined. Neutrophils were selected because their adhesion to human aorta endothelial cells (HAEC) is a hallmark of inflammation.
Neutrophils were isolated from human blood using the endotoxin-free Lympholyte-poly kit (Cedarlane, Ontario, Canada). The isolated neutrophil cells were resuspended in RPMI media. […] To quantify the adhesion, the neutrophils were labeled with calcein-AM (5 μM for 30 minutes at 37° C.).

T1 sequence (P06396 28-782): as above

## CCCCCCCCCCCCC/C=C/[C@@H](O)[C@@H](N)COP(=O)(O)O [S1P, Sphingosine-1-phosphate]
[1]
  binding of S1P by gelsolin: did not bind
[2]
  maximal dissociation: 10%
[3]; above 1 μM
  inhibition of gelsolin at higher lipid concentrations: abrupt drop-off of activity
[3]; lipid below 1 μM
  inhibition of gelsolin by lysolipids: at least as strongly as lysophosphatidic acid (LPA); also recorded: also inhibit gelsolin; also recorded: as least as strongly as LPA does

## phosphatidylserine [PS]
[4]
  induction of pyrene excimer formation (emission 480 nm): had no effect
[5]
  inhibitory effect on severing activity of purified gelsolin: had no effect; also recorded: no inhibitory effect; also recorded: have no effect
[6]
  effect on absorbance of gelsolin: had no effect

## gelsolin
[7]
  effect of gelsolin-preincubated LPS on actin cytoskeleton: no discernable effect on the actin cytoskeletons; also recorded: prevented LPS-induced actin cytoskeleton disassembly
[8]
  blocking of LPS-induced NF-κB translocation: completely blocked; also recorded: blocked LPS-induced translocation; also recorded: blocked by pre-incubation with gelsolin
[9]
  inhibition of 125I-LBP binding to LPS coated wells: 69±6%
[10]
  direct binding of 125I-LBP to gelsolin-coated surfaces: did not bind to gelsolin-coated surfaces; also recorded: does not interact directly with the LBP; also recorded: does not bind to gelsolin-coated surfaces
[11]
  effect of gelsolin-preincubated LPS on actin cytoskeleton: no discernable effect on the actin cytoskeletons; also recorded: prevented LPS-induced actin cytoskeleton disassembly
[12]; 8 mg s.c. immediately after LPS and at 24, 48, 72 hours, listed as plasma gelsolin
  survival compared to saline or BSA controls: rescues the endotoxemic mice; also recorded: markedly improved survival
[12]; Day 7 / after 1 week
  condition of surviving mice: complete recovery
[12]; s.c. administration
  plasma gelsolin level restored in LPS-treated animals: 200 µg/mL
[13]
  effect on neutrophil adhesion to LTA-stimulated HAEC: inhibit neutrophil adhesion; also recorded: reduced to near baseline values; also recorded: prevents LTA activation of endothelial cells
